# Results taken from PubChem BioAssay (NCI).
#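 Exposure lasted 48 hours, with cells grown in 96-well plates and compounds tested at five concentrations. TGI marks complete inhibition of growth.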
# Columns and labels:
# Assay in all cases: DTP human tumour cell line panel, 48 h
# 786-0 renal = test system: 786-0 renal
# A498 renal = test system: A498 renal
# A549 NSCLC = test system: A549 NSCLC
# ACHN renal = test system: ACHN renal
# CAKI-1 renal = test system: CAKI-1 renal
# CCRF-CEM leukemia = test system: CCRF-CEM leukemia
# COLO 205 colon = test system: COLO 205 colon
# DLD-1 colon = test system: DLD-1 colon
# DMS 114 small cell lung = test system: DMS 114 small cell lung
# DMS 273 small cell lung = test system: DMS 273 small cell lung
# EKVX NSCLC = test system: EKVX NSCLC
# HCT-116 colon = test system: HCT-116 colon
# HCT-15 colon = test system: HCT-15 colon
# HL-60(TB) leukemia = test system: HL-60(TB) leukemia
# HOP-18 NSCLC = test system: HOP-18 NSCLC
# HOP-62 NSCLC = test system: HOP-62 NSCLC
# HOP-92 NSCLC = test system: HOP-92 NSCLC
# HT29 colon = test system: HT29 colon
# IGROV1 ovarian = test system: IGROV1 ovarian
# K-562 leukemia = test system: K-562 leukemia
# KM12 colon = test system: KM12 colon
# KM20L2 colon = test system: KM20L2 colon
# LOX IMVI melanoma = test system: LOX IMVI melanoma
# LXFL 529 NSCLC = test system: LXFL 529 NSCLC
# M14 melanoma = test system: M14 melanoma
# M19-MEL melanoma = test system: M19-MEL melanoma
# MALME-3M melanoma = test system: MALME-3M melanoma
# MOLT-4 leukemia = test system: MOLT-4 leukemia
# NCI-H226 lung = test system: NCI-H226 lung
# NCI-H23 lung = test system: NCI-H23 lung
# NCI-H460 lung = test system: NCI-H460 lung
# NCI-H522 lung = test system: NCI-H522 lung
# OVCAR-3 ovarian = test system: OVCAR-3 ovarian
# OVCAR-4 ovarian = test system: OVCAR-4 ovarian
# OVCAR-5 ovarian = test system: OVCAR-5 ovarian
# OVCAR-8 ovarian = test system: OVCAR-8 ovarian
# RPMI-8226 leukemia = test system: RPMI-8226 leukemia
# RXF 393 renal = test system: RXF 393 renal
# SF-268 CNS = test system: SF-268 CNS
# SF-295 CNS = test system: SF-295 CNS
# SF-539 CNS = test system: SF-539 CNS
# SK-MEL-2 melanoma = test system: SK-MEL-2 melanoma
# SK-MEL-28 melanoma = test system: SK-MEL-28 melanoma
# SK-MEL-5 melanoma = test system: SK-MEL-5 melanoma
# SK-OV-3 ovarian = test system: SK-OV-3 ovarian
# SN12C renal = test system: SN12C renal
# SNB-19 CNS = test system: SNB-19 CNS
# SNB-75 CNS = test system: SNB-75 CNS
# SNB-78 CNS = test system: SNB-78 CNS
# SW-620 colon = test system: SW-620 colon
# TK-10 renal = test system: TK-10 renal
# U251 CNS = test system: U251 CNS
# UACC-257 melanoma = test system: UACC-257 melanoma
# UACC-62 melanoma = test system: UACC-62 melanoma
# UO-31 renal = test system: UO-31 renal
# XF 498 CNS = test system: XF 498 CNS
# HCC-2998 colon = test system: HCC-2998 colon
# RXF-631 renal = test system: RXF-631 renal
compound,measurement,setting,value
CN1CCCc2nc3ccccc3n2C1,TGI,786-0 renal,> 100 µM
same,TGI,A498 renal,> 100 µM
same,TGI,A549 NSCLC,> 100 µM
same,TGI,ACHN renal,> 100 µM
same,TGI,CAKI-1 renal,> 100 µM
same,TGI,CCRF-CEM leukemia,> 100 µM
same,TGI,COLO 205 colon,> 100 µM
same,TGI,DLD-1 colon,> 100 µM
same,TGI,DMS 114 small cell lung,> 100 µM
same,TGI,DMS 273 small cell lung,> 100 µM
same,TGI,EKVX NSCLC,> 100 µM
same,TGI,HCT-116 colon,> 100 µM
same,TGI,HCT-15 colon,> 100 µM
same,TGI,HL-60(TB) leukemia,> 100 µM
same,TGI,HOP-18 NSCLC,> 100 µM
same,TGI,HOP-62 NSCLC,> 100 µM
same,TGI,HOP-92 NSCLC,> 100 µM
same,TGI,HT29 colon,> 100 µM
same,TGI,IGROV1 ovarian,> 100 µM
same,TGI,K-562 leukemia,> 100 µM
same,TGI,KM12 colon,> 100 µM
same,TGI,KM20L2 colon,> 100 µM
same,TGI,LOX IMVI melanoma,> 100 µM
same,TGI,LXFL 529 NSCLC,> 100 µM
same,TGI,M14 melanoma,> 100 µM
same,TGI,M19-MEL melanoma,> 100 µM
same,TGI,MALME-3M melanoma,> 100 µM
same,TGI,MOLT-4 leukemia,> 100 µM
same,TGI,NCI-H226 lung,> 100 µM
same,TGI,NCI-H23 lung,> 100 µM
same,TGI,NCI-H460 lung,> 100 µM
same,TGI,NCI-H522 lung,> 100 µM
same,TGI,OVCAR-3 ovarian,> 100 µM
same,TGI,OVCAR-4 ovarian,> 100 µM
same,TGI,OVCAR-5 ovarian,> 100 µM
same,TGI,OVCAR-8 ovarian,> 100 µM
same,TGI,RPMI-8226 leukemia,68.8 µM
same,TGI,RXF 393 renal,> 100 µM
same,TGI,SF-268 CNS,> 100 µM
same,TGI,SF-295 CNS,> 100 µM
same,TGI,SF-539 CNS,> 100 µM
same,TGI,SK-MEL-2 melanoma,> 100 µM
same,TGI,SK-MEL-28 melanoma,> 100 µM
same,TGI,SK-MEL-5 melanoma,> 100 µM
same,TGI,SK-OV-3 ovarian,> 100 µM
same,TGI,SN12C renal,> 100 µM
same,TGI,SNB-19 CNS,> 100 µM
same,TGI,SNB-75 CNS,> 100 µM
same,TGI,SNB-78 CNS,> 100 µM
same,TGI,SW-620 colon,> 100 µM
same,TGI,TK-10 renal,> 100 µM
same,TGI,U251 CNS,> 100 µM
same,TGI,UACC-257 melanoma,> 100 µM
same,TGI,UACC-62 melanoma,> 100 µM
same,TGI,UO-31 renal,> 100 µM
same,TGI,XF 498 CNS,> 100 µM
OC1=CN=C(c2ccccc2)Oc2ccccc21,TGI,786-0 renal,> 100 µM
same,TGI,A498 renal,> 100 µM
same,TGI,A549 NSCLC,> 100 µM
same,TGI,ACHN renal,> 100 µM
same,TGI,CCRF-CEM leukemia,> 100 µM
same,TGI,COLO 205 colon,> 100 µM
same,TGI,DLD-1 colon,> 100 µM
same,TGI,DMS 114 small cell lung,> 100 µM
same,TGI,DMS 273 small cell lung,> 100 µM
same,TGI,EKVX NSCLC,> 100 µM
same,TGI,HCC-2998 colon,> 100 µM
same,TGI,HCT-116 colon,> 100 µM
same,TGI,HCT-15 colon,> 100 µM
same,TGI,HL-60(TB) leukemia,> 100 µM
same,TGI,HOP-62 NSCLC,> 100 µM
same,TGI,HOP-92 NSCLC,> 100 µM
same,TGI,HT29 colon,> 100 µM
same,TGI,IGROV1 ovarian,> 100 µM
same,TGI,K-562 leukemia,> 100 µM
same,TGI,KM12 colon,> 100 µM
same,TGI,KM20L2 colon,> 100 µM
same,TGI,LOX IMVI melanoma,> 100 µM
same,TGI,LXFL 529 NSCLC,> 100 µM
same,TGI,M14 melanoma,> 100 µM
same,TGI,M19-MEL melanoma,> 100 µM
same,TGI,MALME-3M melanoma,> 100 µM
same,TGI,MOLT-4 leukemia,> 100 µM
same,TGI,NCI-H226 lung,97.5 µM
same,TGI,NCI-H23 lung,> 100 µM
same,TGI,NCI-H460 lung,> 100 µM
same,TGI,OVCAR-3 ovarian,> 100 µM
same,TGI,OVCAR-4 ovarian,> 100 µM
same,TGI,OVCAR-8 ovarian,> 100 µM
same,TGI,RPMI-8226 leukemia,> 100 µM
same,TGI,RXF 393 renal,> 100 µM
same,TGI,RXF-631 renal,> 100 µM
same,TGI,SF-268 CNS,> 100 µM
same,TGI,SF-295 CNS,> 100 µM
same,TGI,SF-539 CNS,38.7 µM
same,TGI,SK-MEL-2 melanoma,> 100 µM
same,TGI,SK-MEL-28 melanoma,> 100 µM
same,TGI,SK-MEL-5 melanoma,> 100 µM
same,TGI,SK-OV-3 ovarian,> 100 µM
same,TGI,SN12C renal,> 100 µM
same,TGI,SNB-19 CNS,> 100 µM
same,TGI,SNB-75 CNS,> 100 µM
same,TGI,SNB-78 CNS,> 100 µM
same,TGI,SW-620 colon,> 100 µM
same,TGI,TK-10 renal,> 100 µM
same,TGI,U251 CNS,> 100 µM
same,TGI,UACC-257 melanoma,> 100 µM
same,TGI,UACC-62 melanoma,> 100 µM
same,TGI,UO-31 renal,> 100 µM
